A short description of assay [1]: Inhibition of HCV NS3 protease. On the set-up: species or system Hepacivirus hominis.
A further assay has as its target T1, Neutrophil elastase (Homo sapiens, UniProt P08246).
T1 sequence (P08246 whole entry): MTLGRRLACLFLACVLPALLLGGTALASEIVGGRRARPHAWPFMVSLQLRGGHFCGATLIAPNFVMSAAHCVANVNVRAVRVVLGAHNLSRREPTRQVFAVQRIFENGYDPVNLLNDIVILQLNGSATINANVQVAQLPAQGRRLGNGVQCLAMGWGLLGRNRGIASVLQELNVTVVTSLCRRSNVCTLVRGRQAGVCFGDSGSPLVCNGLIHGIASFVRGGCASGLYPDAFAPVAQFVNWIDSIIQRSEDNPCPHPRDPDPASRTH
Description: Inhibition of human leucocyte elastase.

The test system of a further assay is Hepatitis C virus. Description: Antiviral activity in Huh7 cells containing sub-genomic HCV subtype 1b replicon by RT-PCR. The format is functional, organism-based, Hepacivirus hominis. The following applies: genotype 1b, Huh-7. In general terms: In antiviral work, replicon cells carry a viral genome segment that copies itself.
A further assay has as its target Cathepsin B (Homo sapiens, UniProt P07858). Description: Inhibition of human cathepsin B.

Drawing on ChEMBL document CHEMBL1149282, “A systematic approach to the optimization of substrate-based inhibitors of the hepatitis C virus NS3 protease: discovery of potent and specific tripeptide inhibitors” (J Med Chem, 2004), this text covers IC50 and EC50 for 31 molecules.

What is called IC50 is the concentration needed to halve the response being measured. A lower IC50 goes with greater potency in that assay. As usually defined, the EC50 is the midpoint of the concentration-response curve. Higher therefore signals a less potent agent.

Square brackets hold non-standard residues; d marks the D form. Peptide text beside a SMILES is read from it. * marks the point of attachment. Hyp(2-Ph-quinolin-4-yl) = O=C(O)[C@@H]1C[C@@H](Oc2cc(-c3ccccc3)nc3ccccc23)CN1; Hyp(quinolin-4-yl) = O=C(O)[C@@H]1C[C@@H](Oc2ccnc3ccccc23)CN1; Ac3c(1R,2S-2-vinyl) = C=C[C@@H]1C[C@]1(N)C(=O)O; Hyp = O=C(O)[C@@H]1C[C@@H](O)CN1; Chg = N[C@H](C(=O)O)C1CCCCC1; X1 = c1ccc2cc(C*)ccc2c1

In assay [1], `C=C[C@@H]1C[C@]1(NC(=O)[C@@H]1C[C@@H](Oc2cc(-c3ccccc3)nc3cc(OC)ccc23)CN1C(=O)[C@@H](OC(=O)NC1CCCC1)C(C)(C)C)C(=O)O` showed an IC50 of 148 nM. For `C=C[C@@H]1C[C@]1(NC(=O)[C@@H]1C[C@@H](Oc2cc(-c3ccccc3)nc3cc(OC)ccc23)CN1C(=O)[C@@H](NC(=O)OC(C)(C)C)C(C)(C)C)C(=O)O`, the half-maximal inhibitory concentration (IC50) on Neutrophil elastase is over 75 µM; in assay [1], 29 nM. The EC50 in the assay on Hepatitis C virus was found to be 660 nM.

As to `C=C[C@@H]1C[C@]1(NC(=O)[C@@H]1C[C@@H](Oc2cc(-c3ccccc3)nc3cc(C(F)(F)F)ccc23)CN1C(=O)[C@@H](NC(=O)OC(C)(C)C)C(C)(C)C)C(=O)O`, it took 828 nM to reach half-maximal inhibition in assay [1] (IC50). That is a sub-micromolar value.

Consider `C=C[C@@H]1C[C@]1(NC(=O)[C@@H]1C[C@@H](Oc2cc(-c3ccccc3)nc3ccccc23)CN1C(=O)[C@@H](NC(=O)OC(C)(C)C)C(C)(C)C)C(=O)O`, for which half-maximal inhibition in assay [1] (IC50) was put at 150 nM. The same measure, in the same setting: to `C=C[C@@H]1C[C@]1(NC(=O)[C@@H]1C[C@@H](Oc2cc(-c3ccccc3)nc3c(OC)c(OC)ccc23)CN1C(=O)[C@@H](NC(=O)[C@@H](NC(C)=O)C1CCCCC1)C(C)C)C(=O)O` belongs 13 nM. Consider `C=C[C@@H]1C[C@]1(NC(=O)[C@@H]1C[C@@H](Oc2cc(-c3ccccc3)nc3cc(OC)ccc23)CN1C(=O)[C@@H](NC(=O)NC(C)(C)C)C(C)(C)C)C(=O)O`, for which it took 8 nM to reach half-maximal inhibition in assay [1] (IC50). Also, the EC50 with Hepatitis C virus amounted to 1220 nM. Regarding `C=C[C@@H]1C[C@]1(NC(=O)[C@@H]1C[C@@H](Oc2cc(-c3ccccc3)nc3cc(OC)ccc23)CN1C(=O)[C@@H](NC(=O)N(C)C(C)(C)C)C(C)(C)C)C(=O)O`, the IC50 in assay [1] is 205 nM. As to `C=C[C@@H]1C[C@]1(NC(=O)[C@@H]1C[C@@H](Oc2cc(-c3ccccc3)nc3cc(F)ccc23)CN1C(=O)[C@@H](NC(=O)OC(C)(C)C)C(C)(C)C)C(=O)O`, the IC50 in assay [1] is 282 nM.

As to `C=C[C@@H]1C[C@]1(NC(=O)[C@@H]1C[C@@H](Oc2cc(-c3ccccc3)nc3cc(C(=O)O)ccc23)CN1C(=O)[C@@H](NC(=O)OC(C)(C)C)C(C)(C)C)C(=O)O`, the IC50 in assay [1] is over 1000 nM. Turning to `C=C[C@@H]1C[C@]1(NC(=O)[C@@H]1C[C@@H](Oc2cc(-c3ccccc3)nc3cc(OC)ccc23)CN1C(=O)[C@@H](NC(=O)[C@@H](N)C1CCCCC1)C(C)(C)C)C(=O)O`, the IC50 in assay [1] was 18 nM. For `C=C[C@@H]1C[C@]1(NC(=O)[C@@H]1C[C@@H](Oc2cc(-c3ccccc3)nc3cc(Br)ccc23)CN1C(=O)[C@@H](NC(=O)OC(C)(C)C)C(C)(C)C)C(=O)O`, in assay [1], the IC50 is 350 nM. On to `C=C[C@@H]1C[C@]1(NC(=O)[C@@H]1C[C@@H](Oc2cc(-c3ccccc3)nc3cc(OC)ccc23)CN1C(=O)[C@@H](NC(=O)OC1CCC1)C(C)(C)C)C(=O)O`, for which the IC50 in assay [1] was determined as 24 nM. The molecule also displayed an EC50 in the assay with Hepatitis C virus of 960 nM. Regarding `C=C[C@@H]1C[C@]1(NC(=O)[C@@H]1C[C@@H](Oc2cc(-c3ccccc3)nc3cc(SC)ccc23)CN1C(=O)[C@@H](NC(=O)OC(C)(C)C)C(C)(C)C)C(=O)O`, in assay [1], the IC50 was 139 nM. This lies in the sub-micromolar range. For `C=C[C@@H]1C[C@]1(NC(=O)[C@@H]1C[C@@H](Oc2cc(-c3ccccc3)nc3cccc(OC)c23)CN1C(=O)[C@@H](NC(=O)[C@@H](NC(C)=O)C1CCCCC1)C(C)C)C(=O)O`, the concentration for half-maximal inhibition (IC50) in assay [1] was found to be 557 nM. Regarding `C=C[C@@H]1C[C@]1(NC(=O)[C@@H]1C[C@@H](Oc2cc(-c3ccccc3)nc3cc(OC)ccc23)CN1C(=O)[C@@H](NC(=O)NC1CCCCC1)C(C)(C)C)C(=O)O`, in assay [1], the midpoint of inhibition, the IC50, lay at 9 nM. In the assay on Hepatitis C virus, the concentration giving a half-maximal response (EC50) came out at 2900 nM. Turning to `C=C[C@@H]1C[C@]1(NC(=O)[C@@H]1C[C@@H](Oc2cc(-c3ccccc3)nc3cc(OC)ccc23)CN1C(=O)[C@@H](NC(=O)CC1CCCCC1)C(C)(C)C)C(=O)O`, the IC50 in assay [1] is 37 nM. In other words, the double-digit nanomolar range. `C=C[C@@H]1C[C@]1(NC(=O)[C@@H]1C[C@@H](Oc2cc(-c3ccccc3)nc3ccccc23)CN1C(=O)[C@@H](NC(=O)[C@@H](NC(C)=O)C1CCCCC1)C(C)C)C(=O)O` (Ac-[Chg]V[Hyp(2-Ph-quinolin-4-yl)][Ac3c(1R,2S-2-vinyl)]-OH): the concentration for half-maximal inhibition (IC50) is over 30 µM on Neutrophil elastase, over 30 µM on Cathepsin B and 13 nM in assay [1]. As to `C=C[C@@H]1C[C@]1(NC(=O)[C@@H]1C[C@@H](Oc2cc(-c3ccccc3)nc3cc(OC)ccc23)CN1C(=O)[C@@H](NC(=O)[C@@H](NC(C)=O)C1CCCCC1)C(C)(C)C)C(=O)O`, in assay [1], the midpoint of inhibition, the IC50, lay at 1 nM.

In assay [1], `C=C[C@@H]1C[C@]1(NC(=O)[C@@H]1C[C@@H](Oc2cc(-c3ccccc3)nc3cc(OC)ccc23)CN1C(=O)[C@@H](NC(=O)NC1CCCC1)C(C)(C)C)C(=O)O` had an IC50 of 5 nM. Also, in the assay on Hepatitis C virus, a half-maximal response (EC50) required 910 nM. `C=C[C@@H]1C[C@]1(NC(=O)[C@@H]1C[C@@H](Oc2cc(-c3ccccc3)nc3cc(OC(C)C)ccc23)CN1C(=O)[C@@H](NC(=O)OC(C)(C)C)C(C)(C)C)C(=O)O` came in with an IC50 in assay [1] of 228 nM. `C=C[C@@H]1C[C@]1(NC(=O)[C@@H]1C[C@@H](Oc2cc(-c3ccccc3)nc3cc(OC)ccc23)CN1C(=O)[C@@H](NC(=O)[C@@H](NC(C)=O)C1CCCCC1)C(C)C)C(=O)O` gave an IC50 in assay [1] of 2 nM. Same read-out and setting: to `C=C[C@@H]1C[C@]1(NC(=O)[C@@H]1C[C@@H](Oc2cc(-c3ccccc3)nc3cc(OC)ccc23)CN1C(=O)[C@@H](NC(=O)[C@@H](C)C1CCCCC1)C(C)(C)C)C(=O)O` belongs 37 nM; to `C=C[C@@H]1C[C@]1(NC(=O)[C@@H]1C[C@@H](Oc2cc(-c3ccccc3)nc3ccc(OC)cc23)CN1C(=O)[C@@H](NC(=O)[C@@H](NC(C)=O)C1CCCCC1)C(C)C)C(=O)O`, 41 nM. Same read-out and setting: the value for `C=C[C@@H]1C[C@]1(NC(=O)[C@@H]1C[C@@H](Oc2ccnc3ccccc23)CN1C(=O)[C@@H](NC(=O)[C@@H](NC(C)=O)C1CCCCC1)C(C)C)C(=O)O` (Ac-[Chg]V[Hyp(quinolin-4-yl)][Ac3c(1R,2S-2-vinyl)]-OH) was 170 nM. For `C=C[C@@H]1C[C@]1(NC(=O)[C@@H]1C[C@@H](Oc2cc(-c3ccccc3)nc3cc(OC)ccc23)CN1C(=O)[C@@H](NC(=O)OC1CCCC1)C(C)(C)C)C(=O)O`, half-maximal inhibition in assay [1] (IC50) required 14 nM. Still for that read-out and setting: the value for `C=C[C@@H]1C[C@]1(NC(=O)[C@@H]1C[C@@H](Oc2cc(-c3ccccc3)nc3cc(NC(C)=O)ccc23)CN1C(=O)[C@@H](NC(=O)OC(C)(C)C)C(C)(C)C)C(=O)O` was 29 nM; that for `C=C[C@@H]1C[C@]1(NC(=O)[C@@H]1C[C@@H](Oc2ccnc3cc(OC)ccc23)CN1C(=O)[C@@H](NC(=O)[C@@H](NC(C)=O)C1CCCCC1)C(C)C)C(=O)O` was 10 nM. `C=C[C@@H]1C[C@]1(NC(=O)[C@@H]1C[C@@H](Oc2cc(-c3ccccc3)nc3cc(OC)ccc23)CN1C(=O)[C@@H](NC(=O)OC1CCCCC1)C(C)(C)C)C(=O)O`: in assay [1], half-maximal inhibition (IC50) was put at 30 nM. This molecule also registered a concentration for a half-maximal effect (EC50) in the assay with Hepatitis C virus of 460 nM.

In assay [1], `C=C[C@@H]1C[C@]1(NC(=O)[C@@H]1C[C@@H](Oc2cc(-c3ccccc3)nc3cc(OC(F)(F)F)ccc23)CN1C(=O)[C@@H](NC(=O)OC(C)(C)C)C(C)(C)C)C(=O)O` returned an IC50 of 790 nM.

In turn, `C=C[C@@H]1C[C@]1(NC(=O)[C@@H]1C[C@@H](OCc2ccc3ccccc3c2)CN1C(=O)[C@@H](NC(=O)[C@@H](NC(C)=O)C1CCCCC1)C(C)C)C(=O)O` (Ac-[Chg]V[Hyp](X1)[Ac3c(1R,2S-2-vinyl)]-OH) showed a concentration for half-maximal inhibition (IC50) in assay [1] of 600 nM. `C=C[C@@H]1C[C@]1(NC(=O)[C@@H]1C[C@@H](Oc2cc(-c3ccccc3)nc3c(OC)cccc23)CN1C(=O)[C@@H](NC(=O)[C@@H](NC(C)=O)C1CCCCC1)C(C)C)C(=O)O` yielded an IC50 in assay [1] of 5 nM.
